# Results taken from US6291527A (priority 1998, dated 2001).
# Counter-ions that a name gives are not always drawn.
# Experiments:
# [1] = animal studies of the three salts vs Ketoprofen acid and Ketoprofen sodium salt: distribution and kinetics; assay type: in vivo, experimental animals; conditions: for active substance concentration in the inflamed site: injection, vs Ketoprofen sodium salt; for kinetic parameters after oral administration: vs Ketoprofen acid and Ketoprofen sodium salt
# Source text: The three above mentioned Ketoprofen salts were compared with Ketoprofen acid and Ketoprofen sodium salt in animal studies.
# prostaglandin E2 (PGE2) = assay: foreign body (sponge) method in the rat: PGE2 in the inflammatory exudate (immunoenzymatic assay); assay type: in vivo; conditions: rat, oral, listed as KLS; for PGE2 concentration in the inflammatory exudate / % inhibition versus controls of PGE2: 8 hours; for PGE2 concentration in the inflammatory exudate: mean, controls 98.7 ± 4.7
# Protocol: (§1) These tests involved the use of 100 male CD strain rats (Charles River, Calco, LC, Italy) weighing 180±8 g. The animals were fasted for 12 hours (water ad libitum) before being used for the experiment.
# (§2) The inflammatory reaction with the formation of exudate was induced by using sterilized polyester sponges (4×1.5×0.5 cm) soaked in carrageen dissolved at a 2% concentration in sterile physiological solution. The rats were anesthetized lightly with ether and two sponges per rat were implanted subcutaneously in a previously shaven dorsal area.
# (§3) The sponges were removed 8 hours later after having sacrificed the animals by ether euthanasia, and immediately placed in large polyethylene 50 ml test tubes containing 10 ml of heparinized physiological solution. The test tubes were then subjected to centrifugation (1000 rotations; 15 minutes), followed by removal of the sponges and accurate measurement of the volume of the remaining fluid. Always using the Higgs et al. method, the acid lipids present in the fluid were extracted in chloroform with prior dilution in ethanol and acidification to pH 3. After complete evaporation of the chloroform, the remaining dry residue was dissolved in physiological solution and used for the immunoenzymatic assay of prostaglandin E2 (PGE2).
# (§4) All the other reagents used for the tests were purchased from Merck-Bracco (Milan, Italy).
# carrageen edema = carrageen edema test in the rat (hind paw volume, plethysmometer); conditions: rat, oral; for evolution of paw volume (delta in ml) at 1st hour / evolution of paw volume (delta in ml) at 2nd hour / evolution of paw volume (delta in ml) at 3rd hour / evolution of paw volume (delta in ml) at 4th hour / evolution of paw volume (delta in ml) at 5th hour / evolution of paw volume (delta in ml) at 6th hour: mean ± MSE; for % inhibition vs controls (paw edema AUC): p < 0.001; for AUC (mean ± MSE) of increase in paw volume: paw volume (delta in ml) vs time (0 to 6 hours), controls 4.23 ± 0.26; for oral ED50 (carrageen edema, extrapolated from AUC): 95% conf. lim. KGS 0.733-1.474, KLS 1.198-1.567
# [2] = system: inflammatory exudate (IE); assay: foreign body (sponge) method in the rat: inflammatory exudate volume; assay type: in vivo; conditions: for IE (inflammatory exudate) volume / % inhibition versus controls of IE: 8 hours; for IE (inflammatory exudate) volume: mean ± MSE, controls 5.15 ± 0.28
# Protocol: as §1, §2, §3, §4
# [3] = rat, oral, 0.5 mg/kg, listed as KLS
# [4] = rat, oral, 1 mg/kg, listed as KLS
# [5] = rat, oral, 2 mg/kg, listed as KLS
# [6] = rat, oral, 4 mg/kg, listed as KLS
structure (smiles),measurement,setting,value
CC(C(=O)O)c1cccc(C(=O)c2ccccc2)c1 (stereo not shown) [Ketoprofen Proline salt],active substance concentration in the inflamed site,[1],intermediate concentrations between the sodium salt and the Glucosamine salt
same,kinetic parameters after oral administration,[1],significantly different
CC(C(=O)O)c1cccc(C(=O)c2ccccc2)c1 (stereo not shown) [Ketoprofen Hydroxyproline salt],active substance concentration in the inflamed site,[1],intermediate concentrations between the sodium salt and the Glucosamine salt
same,kinetic parameters after oral administration,[1],significantly different
CC(C(=O)O)c1cccc(C(=O)c2ccccc2)c1 (stereo not shown) [Ketoprofen Lysine salt],PGE2 concentration in the inflammatory exudate,prostaglandin E2 (PGE2); 0.5 mg/kg,78.1 ng/mL
same,% inhibition versus controls of PGE2,prostaglandin E2 (PGE2); 0.5 mg/kg,20.9%
same,PGE2 concentration in the inflammatory exudate,prostaglandin E2 (PGE2); 1 mg/kg,67.9 ng/mL
same,% inhibition versus controls of PGE2,prostaglandin E2 (PGE2); 1 mg/kg,31.2%
same,PGE2 concentration in the inflammatory exudate,prostaglandin E2 (PGE2); 2 mg/kg,55.6 ng/mL
same,% inhibition versus controls of PGE2,prostaglandin E2 (PGE2); 2 mg/kg,43.7%
same,PGE2 concentration in the inflammatory exudate,prostaglandin E2 (PGE2); 4 mg/kg,32.8 ng/mL
same,% inhibition versus controls of PGE2,prostaglandin E2 (PGE2); 4 mg/kg,66.8%
same,PGE2 oral ED50,"prostaglandin E2 (PGE2); 95% confidence limits KGS 1.848-2.131, KLS 2.215-3.005, 480 min",2.610 mg/kg
same,evolution of paw volume (delta in ml) at 1st hour,"carrageen edema; 0.5 mg/kg, controls 0.40 ± 0.02, listed as KLS",0.32 ± 0.02 mL
same,evolution of paw volume (delta in ml) at 2nd hour,"carrageen edema; 0.5 mg/kg, controls 0.71 ± 0.02, listed as KLS",0.53 ± 0.03 mL
same,evolution of paw volume (delta in ml) at 3rd hour,"carrageen edema; 0.5 mg/kg, controls 0.87 ± 0.03, listed as KLS",0.66 ± 0.04 mL
same,evolution of paw volume (delta in ml) at 4th hour,"carrageen edema; 0.5 mg/kg, controls 0.93 ± 0.03, listed as KLS",0.70 ± 0.03 mL
same,evolution of paw volume (delta in ml) at 5th hour,"carrageen edema; 0.5 mg/kg, controls 0.90 ± 0.04, listed as KLS",0.68 ± 0.02 mL
same,evolution of paw volume (delta in ml) at 6th hour,"carrageen edema; 0.5 mg/kg, controls 0.84 ± 0.04, listed as KLS",0.64 ± 0.03 mL
same,% inhibition vs controls (paw edema AUC),"carrageen edema; 0.5 mg/kg, listed as KLS",24.1%
same,AUC (mean ± MSE) of increase in paw volume,"carrageen edema; 0.5 mg/kg, listed as KLS, 0.5 mg/kg",3.21 ± 0.17
same,evolution of paw volume (delta in ml) at 1st hour,"carrageen edema; 1 mg/kg, listed as KLS",0.24 ± 0.02 mL
same,evolution of paw volume (delta in ml) at 2nd hour,"carrageen edema; 1 mg/kg, listed as KLS",0.43 ± 0.03 mL
same,evolution of paw volume (delta in ml) at 3rd hour,"carrageen edema; 1 mg/kg, listed as KLS",0.54 ± 0.03 mL
same,evolution of paw volume (delta in ml) at 4th hour,"carrageen edema; 1 mg/kg, listed as KLS",0.59 ± 0.03 mL
same,evolution of paw volume (delta in ml) at 5th hour,"carrageen edema; 1 mg/kg, listed as KLS",0.57 ± 0.03 mL
same,evolution of paw volume (delta in ml) at 6th hour,"carrageen edema; 1 mg/kg, listed as KLS",0.49 ± 0.03 mL
same,% inhibition vs controls (paw edema AUC),"carrageen edema; 1 mg/kg, listed as KLS",38.0%
same,AUC (mean ± MSE) of increase in paw volume,"carrageen edema; 1 mg/kg, listed as KLS, 1 mg/kg",2.62 ± 0.12
same,evolution of paw volume (delta in ml) at 1st hour,"carrageen edema; 2 mg/kg, listed as KLS",0.13 ± 0.02 mL
same,evolution of paw volume (delta in ml) at 2nd hour,"carrageen edema; 2 mg/kg, listed as KLS",0.23 ± 0.02 mL
same,evolution of paw volume (delta in ml) at 3rd hour,"carrageen edema; 2 mg/kg, listed as KLS",0.28 ± 0.02 mL
same,evolution of paw volume (delta in ml) at 4th hour,"carrageen edema; 2 mg/kg, listed as KLS",0.29 ± 0.02 mL
same,evolution of paw volume (delta in ml) at 5th hour,"carrageen edema; 2 mg/kg, listed as KLS",0.28 ± 0.02 mL
same,evolution of paw volume (delta in ml) at 6th hour,"carrageen edema; 2 mg/kg, listed as KLS",0.23 ± 0.03 mL
same,% inhibition vs controls (paw edema AUC),"carrageen edema; 2 mg/kg, listed as KLS",68.6%
same,AUC (mean ± MSE) of increase in paw volume,"carrageen edema; 2 mg/kg, listed as KLS, 2 mg/kg",1.33 ± 0.07
same,"oral ED50 (carrageen edema, extrapolated from AUC)",carrageen edema,1.383 mg/kg
same,"oral ED50 (carrageen edema, extrapolated from AUC)",carrageen edema; listed as KLS,1.383 mg/kg
same,control of the inflammatory response to sponge implantation,"[2]; rat, 0.5, 1, 2 and 4 mg/kg per os",able to control the inflammatory response
same,IE (inflammatory exudate) volume,[2]; [3],4.33 ± 0.26 mL
same,% inhibition versus controls of IE,[2]; [3],15.9%
same,IE (inflammatory exudate) volume,[2]; [4],3.82 ± 0.15 mL
same,% inhibition versus controls of IE,[2]; [4],25.8%
same,IE (inflammatory exudate) volume,[2]; [5],2.97 ± 0.19 mL
same,% inhibition versus controls of IE,[2]; [5],42.3%
same,IE (inflammatory exudate) volume,[2]; [6],1.68 ± 0.14 mL
same,% inhibition versus controls of IE,[2]; [6],67.4%
same,IE oral ED50,"[2]; rat, oral, 95% confidence limits KGS 1.802-2.381, KLS 2.334-3.094, 480 min, listed as KLS",2.714 mg/kg
